Laboratory results: patent publication US11597703B2, “Caspase inhibitors and methods of use thereof” (Histogen Inc., priority 2019, dated 2023)

What was measured:
Caspase-1 = molecular target: T1, Caspase-1 (Homo sapiens, UniProt P29466); assay: Caspase-1 enzyme inhibition assay (Ac-YVAD-pNA substrate), IC50; assay type: biochemical
T1 construct: purchased Enzo Biosciences
T1 sequence (P29466 120-297 limits assumed): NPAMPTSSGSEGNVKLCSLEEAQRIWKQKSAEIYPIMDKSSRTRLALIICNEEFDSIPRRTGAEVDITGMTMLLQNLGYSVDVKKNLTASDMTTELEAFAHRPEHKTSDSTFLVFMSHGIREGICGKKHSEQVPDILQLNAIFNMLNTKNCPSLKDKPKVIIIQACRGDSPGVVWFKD
T1 sequence (P29466 317-404 limits assumed): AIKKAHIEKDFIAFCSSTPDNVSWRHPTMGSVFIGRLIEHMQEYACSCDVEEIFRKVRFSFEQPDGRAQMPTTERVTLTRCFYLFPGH
Protocol: (§1) Human caspases were purchased from Enzo Biosciences and used according to the manufacturer's instructions. An exemplary caspase assay, for Caspase-1, is provided below:
Caspase-1 was diluted to 10 U/μl in assay buffer consisting of 50 mM HEPES, pH 7.4, 100 mM NaCl, 0.1% CHAPS, 1 mM EDTA, 10% glycerol and 10 mM DTT.
45 μl of assay buffer was added into ½ volume microtiter plate. The plate was allowed to equilibrate to assay temperature. 5 μl of Caspase-1 (10 U/μl) was added to each appropriate well. Two 2 blank wells containing assay buffer alone without Caspase-1 were included on the plate.
The reaction was started by the addition of 50 μl Ac-YVAD-pNA substrate, for a final substrate concentration of 200 μM. The reaction was continuously monitored at 405 nm. The data was graphed as OD405 nm vs time, and the slope was determined over the linear portion of the curve. The rates in OD/min were converted to substrate/min using an extinction coefficient for p-nitroaniline of 10,500M-1 cm-1, and were adjusted for pathlength of sample. […]

Caspase-3 = molecular target: T2, Caspase-3 (Homo sapiens, UniProt P42574); assay: Caspase-3 enzymatic inhibition assay, IC50; assay type: biochemical; conditions: read-out: Caspase 3 enzyme inhibition IC50
T2 construct: purchased Enzo Biosciences
T2 sequence (P42574 29-175 limits assumed): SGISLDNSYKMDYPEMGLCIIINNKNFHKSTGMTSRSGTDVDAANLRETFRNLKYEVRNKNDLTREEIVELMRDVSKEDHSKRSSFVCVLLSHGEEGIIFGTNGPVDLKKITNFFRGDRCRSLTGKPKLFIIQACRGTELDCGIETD
T2 sequence (P42574 176-277 limits assumed): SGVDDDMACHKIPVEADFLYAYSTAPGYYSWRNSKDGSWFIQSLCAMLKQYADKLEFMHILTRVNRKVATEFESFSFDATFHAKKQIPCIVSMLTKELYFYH
Protocol: as §1
(§2) Enzymatic assays were conducted for Caspase-3, 6 and 7 activity according to the manufacture's instructions.

Caspase 6 = molecular target: T3, Caspase 6 (Homo sapiens, UniProt P55212); assay: Caspase 6 enzymatic inhibition assay, IC50; assay type: biochemical; conditions: read-out: Caspase 6 enzyme inhibition IC50
T3 construct: purchased Enzo Biosciences
T3 sequence (P55212 24-179 limits assumed): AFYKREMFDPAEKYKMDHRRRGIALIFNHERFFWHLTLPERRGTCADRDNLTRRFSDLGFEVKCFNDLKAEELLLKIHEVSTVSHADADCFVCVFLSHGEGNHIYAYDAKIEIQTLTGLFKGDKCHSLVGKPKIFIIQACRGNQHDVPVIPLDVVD
T3 sequence (P55212 194-293 limits assumed): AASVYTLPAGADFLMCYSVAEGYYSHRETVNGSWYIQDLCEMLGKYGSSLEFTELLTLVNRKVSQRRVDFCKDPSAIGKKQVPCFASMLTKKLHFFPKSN
Protocol: as §1, §2

Caspase 7 = molecular target: T4, Caspase 7 (Homo sapiens, UniProt P55210); assay: Caspase 7 enzymatic inhibition assay, IC50; assay type: biochemical; conditions: read-out: Caspase 7 enzyme inhibition IC50
T4 construct: purchased Enzo Biosciences
T4 sequence (P55210 24-198 limits assumed): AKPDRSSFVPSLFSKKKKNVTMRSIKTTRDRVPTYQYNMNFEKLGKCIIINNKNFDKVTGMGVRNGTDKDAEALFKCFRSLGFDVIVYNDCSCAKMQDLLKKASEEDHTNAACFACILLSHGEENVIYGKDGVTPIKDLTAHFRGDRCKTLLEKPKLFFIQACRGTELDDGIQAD
T4 sequence (P55210 207-303 limits assumed): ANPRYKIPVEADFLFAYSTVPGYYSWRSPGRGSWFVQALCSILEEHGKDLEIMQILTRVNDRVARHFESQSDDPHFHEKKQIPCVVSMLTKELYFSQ
Protocol: as §1, §2

IL-1β = assay: Inhibition of LPS-stimulated IL-1β in THP-1 cells (ELISA); assay type: cell-based, human; conditions: Homo sapiens, 10 micromolar, read-out: Percent Inhibition of IL1-β
Protocol: Compounds in the present invention were tested in THP-1 cells, a human monocyte cell line, to assess the inhibition of the inflammatory cytokine IL-1β. THP-1 cells (ATCC TIB-202) were grown in culture and seeded in 96 well plates at a concentration of 200,000 cells per well with a total volume of 150 μL. Plated cells were incubated overnight at 37 degrees C. under an atmosphere of 5% CO2. Media was removed from cells which were washed with PBS. Test compounds were diluted in DMSO stock solution and serially diluted appropriately for initial screening and IC50 determinations. LPS in serum free media (140 μL of […]) was added to each well to stimulate IL-1β production. IL-1β was measured by ELISA assay kit (R&D Systems) per the manufacturers instructions.
IC50 values for the inhibition of IL-1 in THP 1 cells were determined from dose response studies.

Jurkat cells = assay: Prevention of Fas-induced apoptosis in Jurkat cells (WST-8); assay type: cell-based; conditions: Homo sapiens, 10 micromolar, read-out: % Prevention of Fas - induced Jurkat cell apoptosis at 10 micromolar
Protocol: Compounds of the present invention were evaluated in Jurkat cells, a human T-lymphocyte cell line, to evaluate compounds ability to inhibit apoptotic cell death. Jurkat cells, Clone E6-1 (ATCC TIB-152) were grown in culture maintain a cell density between 0.5-2 million cells/mL. Cells were tested for viability and countion with typan blue stain before use. Test compounds were addedd to 96 well plates and Jurkat cells were added at a concentration of approximately 100,000 cells per well and mixed thoroughly by action of pipetting. Plated cells were incubated for 1 hour at 37 degrees C. under an atmosphere of 5% CO2. Anti-Fas antibody was added and mixed by pipet action. Plates were incubated for 20 hours at 37 degrees C. under an atmosphere of 5% CO2. 10 microliters of thawed WST-8 solution was added to each well and incubated for 4 hours. Absorbance was measured at 450 nm and control reading at […] using a SpectraMax ID5 plate reader. Apoptotic cell death is executed by caspases 3, 7 and 6. Compounds that lack activity against these caspases will not prevent the death of Jurkat cells and is a functional test of selectivity for inflammatory over apoptotic caspases.
IC50 values to protect against Fas induced apoptosis and improve survival of Jurkat cells were determined from dose response studies.

| SMILES | IC50 (Caspase-1) | IC50 (Caspase-3) | IC50 (Caspase 6) | IC50 (Caspase 7) | inhibition at 10 µM (IL-1β) | inhibition at 10 µM (Jurkat cells) |
| --- | --- | --- | --- | --- | --- | --- |
| C[C@H](NC(=O)C(=O)Nc1c(F)cccc1F)C(=O)N[C@@H](CCOCc1ccsc1)C(=O)COc1c(F)c(F)cc(F)c1F [Example 4, N^1-(2,6-difluorophenyl)-N^2—((S)-1-oxo-1-(((S)-2-oxo-1-(2,3,5,6-tetrafluorophenoxy)-5-(thiophen-3-ylmethoxy)pentan-3-yl)amino)propan-2-yl)oxalamide] | 10 to 100 nM | ≥ 1000 nM | ≥ 1000 nM | ≥ 1000 nM | 50 to 90% | ≤ 10% |
| COCC[C@H](NC(=O)[C@H](C)NC(=O)C(=O)Nc1c(F)cccc1F)C(=O)COc1c(F)c(F)cc(F)c1F [Example 5, N^1-(2,6-Difluorophenyl)-N^2—((S)-1-(((S)-5-methoxy-2-oxo-1-(2,3,5,6-tetrafluorophenoxy)pentan-3-yl)amino)-1-oxopropan-2-yl)oxalamide] | 100 to 1000 nM | ≥ 1000 nM | ≥ 1000 nM | ≥ 1000 nM | 25 to 50% | ≤ 10% |
| C[C@H](NC(=O)C(=O)Nc1c(F)cccc1F)C(=O)N[C@@H](CCOC(=O)Oc1ccccc1)C(=O)COc1c(F)c(F)cc(F)c1F [Example 7, (S)-3-((S)-2-(2-((2,6-Difluorophenyl)amino)-2-oxoacetamido)propanamido)-4-oxo-5-(2,3,5,6-tetrafluorophenoxy)pentyl phenyl carbonate] | 10 to 100 nM | ≥ 1000 nM | ≥ 1000 nM | ≥ 1000 nM | 50 to 90% | ≤ 10% |
| C[C@H](NC(=O)C(=O)Nc1c(F)cccc1F)C(=O)N[C@@H](CCOC(=O)c1ccccc1)C(=O)COc1c(F)c(F)cc(F)c1F [Example 8, (S)-3-((S)-2-(2-((2,6-Difluorophenyl)amino)-2-oxoacetamido)propanamido)-4-oxo-5-(2,3,5,6-tetrafluorophenoxy)pentyl benzoate] | 100 to 1000 nM | ≥ 1000 nM | ≥ 1000 nM | ≥ 1000 nM | 25 to 50% | ≤ 10% |
| O=C(O)CC[C@H](NC(=O)CNC(=O)C(=O)Nc1c(F)cccc1F)C(=O)COc1c(F)c(F)cc(F)c1F [Example 9, (S)-4-(2-(2-((2,6-difluorophenyl)amino)-2-oxoacetamido)acetamido)-5-oxo-6-(2,3,5,6-tetrafluorophenoxy)hexanoic acid] | ≤ 10 nM | ≥ 1000 nM | ≥ 1000 nM | ≥ 1000 nM | > 90% | ≤ 10% |
| C[C@H](NC(=O)C(=O)Nc1c(F)cccc1F)C(=O)N[C@@H](CCC(=O)O)C(=O)COc1cc(C(F)(F)F)cc(C(F)(F)F)c1 [Example 10, (S)-6-(3,5-bis(trifluoromethyl)phenoxy)-4-((S)-2-(2-((2,6-difluorophenyl)amino)-2-oxoacetamido)propanamido)-5-oxohexanoic acid] | ≤ 10 nM | ≥ 1000 nM | ≥ 1000 nM | ≥ 1000 nM | > 90% | ≤ 10% |

Second part, led by results:

| IC50 (Caspase-1) | IC50 (Caspase-3) | IC50 (Caspase 6) | IC50 (Caspase 7) | SMILES | inhibition at 10 µM (IL-1β) | inhibition at 10 µM (Jurkat cells) |
| --- | --- | --- | --- | --- | --- | --- |
| ≤ 10 nM | ≥ 1000 nM | ≥ 1000 nM | 100 to 1000 nM | C[C@H](NC(=O)C(=O)Nc1ccccc1C(C)(C)C)C(=O)N[C@@H](CCC(=O)O)C(=O)COc1c(F)c(F)cc(F)c1F [Example 11, (S)-4-((S)-2-(2-((2-(tert-Butyl)phenyl)amino)-2-oxoacetamido)propanamido)-5-oxo-6-(2,3,5,6-tetrafluorophenoxy)hexanoic acid] | > 90% | ≤ 10% |
| ≤ 10 nM | ≥ 1000 nM | ≥ 1000 nM | ≥ 1000 nM | CC(C)(NC(=O)C(=O)Nc1c(F)cccc1F)C(=O)N[C@@H](CCC(=O)O)C(=O)COc1c(F)c(F)cc(F)c1F [Example 12, (S)-4-(2-(2-((2,6-Difluorophenyl)amino)-2-oxoacetamido)-2-methylpropanamido)-5-oxo-6-(2,3,5,6-tetrafluorophenoxy)hexanoic acid] | > 90% | ≤ 10% |
| 10 to 100 nM | ≥ 1000 nM | ≥ 1000 nM | ≥ 1000 nM | C[C@H](NC(=O)C(=O)Nc1c(F)cccc1F)C(=O)N[C@@H](CCCC(=O)O)C(=O)COc1c(F)c(F)cc(F)c1F [Example 13, (S)-5-((S)-2-(2-((2,6-Difluorophenyl)amino)-2-oxoacetamido)propanamido)-6-oxo-7-(2,3,5,6-tetrafluorophenoxy)heptanoic acid] | 50 to 90% | ≤ 10% |
| ≤ 10 nM | 100 to 1000 nM | 100 to 1000 nM | 100 to 1000 nM | O=C(O)CC[C@H](NC(=O)C1(NC(=O)C(=O)Nc2c(F)cccc2F)CCCC1)C(=O)COc1c(F)c(F)cc(F)c1F [Example 14, (S)-4-(1-(2-((2,6-Difluorophenyl)amino)-2-oxoacetamido)cyclopentane-1-carboxamido)-5-oxo-6-(2,3,5,6-tetrafluorophenoxy)hexanoic acid] | > 90% | ≤ 10% |
| ≤ 10 nM | ≥ 1000 nM | ≥ 1000 nM | ≥ 1000 nM | C[C@H](NC(=O)C(=O)Nc1c(F)cccc1F)C(=O)N[C@@H](CCC(=O)O)C(=O)COc1ccnc(C(F)(F)F)n1 [Example 15, (S)-4-((S)-2-(2-((2,6-Difluorophenyl)amino)-2-oxoacetamido)propanamido)-5-oxo-6-((2-(trifluoromethyl)pyrimidin-4-yl)oxy)hexanoic acid] | > 90% | ≤ 10% |
| ≤ 10 nM | ≥ 1000 nM | ≥ 1000 nM | ≥ 1000 nM | O=C(O)CC[C@H](NC(=O)Cn1ccc2ccc(Cl)cc2c1=O)C(=O)COc1c(F)c(F)cc(F)c1F [Example 16, (S)-4-(2-(7-Chloro-1-oxoisoquinolin-2(1H)-yl)acetamido)-5-oxo-6-(2,3,5,6-tetrafluorophenoxy)hexanoic acid] | > 90% | ≤ 10% |
